Measured values from patent EP4640240A1, “PEPTIDE-BASED RADIOPHARMACEUTICALS FOR NON-INVASIVE IMAGING OF THE FUNCTIONAL LIVER RESERVE” (Medizinische Universität Innsbruck, priority 2024, dated 2025).
Where two headings read alike, the source gives them in different places.

Columns and labels:
[1] = Partition coefficient logD (n-octanol/PBS); format: physicochemical; details: n=6
Procedure: For determination of logarithmic partition coefficients (logD) n-Octanol (500 µL) and PBS (500 µL) were pipetted into eight 1.5 mL Protein Low-Bind Eppendorf tubes followed by addition of 300 kBq of labelled compound. The vials were vortexed for 5 min at 1,500 1/min and then centrifuged for 5 min at 20,000 rcf (Eppendorf Centrifuge 5424). Aliquots of 100 µL were taken out of each phase and the amount of activity was quantified in a γ-counter (Perkin Elmer 2480 Wizard2 3"; Waltham, Massachusetts, USA).

[2] = Protein binding in human serum (MicroSpin G-50 columns); format: in vitro ADME; details: fresh human serum, 37 °C, n=3
Procedure: Protein binding was determined for different time points (2 min, 30 min, 60 min, 120 min) in triplicates using Sephadex MicroSpin G-50 columns (GE-Healthcare, Chicago, Illinois, USA). The columns were spun initially at 20,000 rcf for 1 min to remove the storage buffer. Then approx. 5 MBq of radioligand was added to 1 mL of fresh human serum and incubated at 37 °C. At each given timepoint 25 µL of the mixture was loaded on to the column, which was then spun at 20,000 rcf for 1 min. The activity content on the column (free radioligand) and in the filtrate (protein bound fraction) was quantified in a γ-counter.

[3] = Biodistribution studies in BALB/c mice; format: in vivo; details: for tissue uptake at 10 min / tissue uptake at 0.5 h / tissue uptake at 1 h: female, mouse, iv, total radioactivity, healthy BALB/c mice, 0.1 nmol i.v.; for tissue uptake at 10 min: 10 min p.i.; for tissue uptake at 0.5 h: 30 min p.i.; for tissue uptake at 1 h: 60 min p.i.
Procedure: For biodistribution studies 6-week-old female BALB/c mice (n=3) were injected with 0.1 nmol (100 µL, approx. 1 MBq) of labelled compound via the lateral tail vein and sacrificed after 10, 30, or 60 min by cervical dislocation. The mice were dissected, blood and organs (spleen, pancreas, stomach, intestine, liver, kidney, heart, lung, muscle and bone) were weighed and their activity measured in a γ-counter. For blocking experiments, mice were co-injected with 27.7 µmοl N-acetylgalactose.

[4] = Stability in human blood serum (radio-HPLC); format: in vitro ADME; details: 37 °C
Procedure: Ligand stability in human blood serum (n = 2) and PBS (pH = 6.5) (n = 1) was determined for different time points (2 min, 30 min, 60 min, 120 min). Therefore, approx. 5 MBq of radioligand was added to 1 mL of fresh human serum at 37 °C or PBS at rt. At each given time point 100 µL of the mixture were transferred to a 1.5 mL Eppendorf tube containing 100 µL of acetonitrile. The vial was vortexed and centrifuged for 2 min at 14,000 1/min before 100 µL of the supernatant were diluted with 200 µL of water and injected into analytical radio-HPLC. The PBS solution was directly injected into the radio-HPLC. Ligand stability was determined by integrating the areas of the signals in the radio chromatogram in relation to the signal of the intact ligand.

[5] = Blood, read-out: Biodistribution data, Blood
[6] = Femur, read-out: Biodistribution data, Femur
[7] = Heart, read-out: Biodistribution data, Heart
[8] = Intestine, read-out: Biodistribution data, Intestine
[9] = Kidneys, read-out: Biodistribution data, Kidneys
[10] = Liver, read-out: Biodistribution data, Liver
[11] = Lung, read-out: Biodistribution data, Lung
[12] = Muscle, read-out: Biodistribution data, Muscle
[13] = Pancreas, read-out: Biodistribution data, Pancreas
[14] = Spleen, read-out: Biodistribution data, Spleen
[15] = Stomach, read-out: Biodistribution data, Stomach

NC(=O)CNC(=O)CNC(=O)[C@H](CCCCNC(=O)CCCCc1cn(C2O[C@H](CO)[C@H](O)[C@H](O)[C@H]2O)nn1)NC(=O)CNC(=O)CNC(=O)[C@H](CCCCNC(=O)CCCCc1cn(C2O[C@H](CO)[C@H](O)[C@H](O)[C@H]2O)nn1)NC(=O)CNC(=O)CNC(=O)[C@H](CCCCNC(=O)CCCCc1cn(C2O[C@H](CO)[C@H](O)[C@H](O)[C@H]2O)nn1)NC(=O)CCCNC(=O)CC[C@H](C(=O)O)N1CCN(CC(=O)O)CCN(CC(=O)O)CC1 (stereo partly shown) [[68Ga]Ga-TriLysan, metal not drawn]
logD [1]: -3.52 ± 0.03
fraction unbound at 2 min, 5 MBq/mL ([2]; 2 min): 0.82
fraction unbound at 30 min, 5 MBq/mL ([2]; 30 min): 0.798
fraction unbound at 60 min, 5 MBq/mL ([2]; 60 min): 0.831
fraction unbound ([2]; 120 min): 0.857 ± 0.126
activity accumulation in the liver (in words) ([3]; BALB/c mice, comparison with ^99mTc-GSA): low accumulation
tissue uptake at 10 min [3, 5]: 3.64 ± 0.08 %ID/g
tissue uptake at 0.5 h [3, 5]: 1.6 ± 0.17 %ID/g
tissue uptake at 1 h [3, 5]: 0.27 ± 0.01 %ID/g
tissue uptake at 10 min [3, 6]: 0.89 ± 0.32 %ID/g
tissue uptake at 0.5 h [3, 6]: 0.39 ± 0.02 %ID/g
tissue uptake at 1 h [3, 6]: 0.11 ± 0.01 %ID/g
tissue uptake at 10 min [3, 7]: 1.41 ± 0.01 %ID/g
tissue uptake at 0.5 h [3, 7]: 0.63 ± 0.04 %ID/g
tissue uptake at 1 h [3, 7]: 0.15 ± 0.01 %ID/g
tissue uptake at 10 min [3, 8]: 1.24 ± 0.26 %ID/g
tissue uptake at 0.5 h [3, 8]: 1.13 ± 0.02 %ID/g
tissue uptake at 1 h [3, 8]: 1.04 ± 0.26 %ID/g
tissue uptake at 10 min [3, 9]: 7.56 ± 1.35 %ID/g
tissue uptake at 0.5 h [3, 9]: 4.99 ± 0.02 %ID/g
tissue uptake at 1 h [3, 9]: 1.99 ± 0.34 %ID/g
tissue uptake at 10 min [3, 10]: 9.45 ± 1.58 %ID/g
tissue uptake at 0.5 h [3, 10]: 9.44 ± 1.99 %ID/g
tissue uptake at 1 h [3, 10]: 9.19 ± 0.27 %ID/g
tissue uptake at 10 min [3, 11]: 2.56 ± 0.17 %ID/g
tissue uptake at 0.5 h [3, 11]: 1.15 ± 0.11 %ID/g
tissue uptake at 1 h [3, 11]: 0.47 ± 0.06 %ID/g
tissue uptake at 10 min [3, 12]: 0.9 ± 0.05 %ID/g
tissue uptake at 0.5 h [3, 12]: 0.4 ± 0.04 %ID/g
tissue uptake at 1 h [3, 12]: 0.12 %ID/g
tissue uptake at 10 min [3, 13]: 0.97 ± 0.04 %ID/g
tissue uptake at 0.5 h [3, 13]: 0.44 %ID/g
tissue uptake at 1 h [3, 13]: 0.17 ± 0.01 %ID/g
tissue uptake at 10 min [3, 14]: 1 ± 0.01 %ID/g
tissue uptake at 0.5 h [3, 14]: 0.42 ± 0.02 %ID/g
tissue uptake at 1 h [3, 14]: 0.16 %ID/g
tissue uptake at 10 min [3, 15]: 1.55 ± 0.24 %ID/g
tissue uptake at 0.5 h [3, 15]: 0.88 ± 0.09 %ID/g
tissue uptake at 1 h [3, 15]: 0.31 ± 0.05 %ID/g
remaining at 2 min ([4]; 2 min, n=2, read-out: Serum stability (% of intact ligand)): 99.9%
remaining at 0.5 h ([4]; 30 min, n=2, read-out: Serum stability (% of intact ligand)): 99.9%
remaining at 1 h ([4]; 60 min, n=2, read-out: Serum stability (% of intact ligand)): 99.9%
Serum stability (% of intact ligand) ([4]; 120 min, n=2): 99.9 ± 0%
